For one experiment, the system named is OCI-AML3 (N-RasQ61L). The experiment is described as follows: Proliferation inhibitory activity, OCI-AML3 cell line. It is filed as cell-based. To be noted: Homo sapiens, OCI-AML-3; OCI-AML3 (mt-NRAS) cell line; read-out: Proliferation inhibitory ability (GI50, μM) OCI-AML3 (N-RasQ61L). As for the experimental part:
(§1) With respect to each of the compounds synthesized in Synthesis Examples, GI50 values were calculated by measuring proliferation inhibitory abilities for mt-NRAS (G12D) Ba/F3, U937 (wt-NRAS), and OCI-AML3 (mt-NRAS) cell lines.

For a further experiment, the system named is U937 (N-Ras WT). The experiment is described as follows: Proliferation inhibitory activity, U937 cell line. The experiment is classed as cell-based. To be noted: Homo sapiens, U-937; U937 (wt-NRAS) cell line; read-out: Proliferation inhibitory ability (GI50, μM) U937 (N-Ras WT). As for the experimental part:
as §1

Another experiment relates to Ba/F3 (N-Ras G12D). As to the kind of experiment: Proliferation inhibitory activity, mt-NRAS (G12D) Ba/F3 cell line. It is filed as cell-based. To be noted: Mus musculus, BaF3, read-out: Proliferation inhibitory ability (GI50, μM) Ba/F3 (N-Ras G12D). As for the experimental part: as §1
The next experiment concerns the target T1, GCK (Homo sapiens, UniProt Q12851).
T1 sequence (Q12851 1-820): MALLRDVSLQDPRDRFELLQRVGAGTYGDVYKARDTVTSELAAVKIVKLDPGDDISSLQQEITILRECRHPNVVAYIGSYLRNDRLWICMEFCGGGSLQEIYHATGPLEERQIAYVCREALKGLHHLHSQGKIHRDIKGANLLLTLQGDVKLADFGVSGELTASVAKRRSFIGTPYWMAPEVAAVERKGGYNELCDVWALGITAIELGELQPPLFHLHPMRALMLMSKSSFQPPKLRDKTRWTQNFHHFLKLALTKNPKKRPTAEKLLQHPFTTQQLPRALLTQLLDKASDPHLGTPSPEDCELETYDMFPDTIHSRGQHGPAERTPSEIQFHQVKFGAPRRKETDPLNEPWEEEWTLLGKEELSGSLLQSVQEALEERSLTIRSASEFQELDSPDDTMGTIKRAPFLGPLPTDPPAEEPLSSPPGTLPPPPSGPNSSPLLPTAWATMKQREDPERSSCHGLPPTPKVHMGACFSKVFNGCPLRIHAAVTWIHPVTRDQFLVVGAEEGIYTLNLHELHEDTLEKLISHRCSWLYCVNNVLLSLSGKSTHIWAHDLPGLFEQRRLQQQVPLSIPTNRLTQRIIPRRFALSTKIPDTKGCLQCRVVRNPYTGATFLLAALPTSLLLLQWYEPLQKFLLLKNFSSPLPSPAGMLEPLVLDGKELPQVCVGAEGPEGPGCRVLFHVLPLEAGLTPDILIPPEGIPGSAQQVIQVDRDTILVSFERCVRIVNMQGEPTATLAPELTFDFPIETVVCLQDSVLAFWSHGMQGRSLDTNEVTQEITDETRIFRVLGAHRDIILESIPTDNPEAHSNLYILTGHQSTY
As to the kind of experiment: Kinase inhibitory activity, GCK. The experiment is classed as biochemical. As for the experimental part:
(§2) With respect to the compounds of the present invention, IC50 values were calculated by measuring inhibitory ability for two kinases of GCK and ACK1.

A further experiment concerns the target ACK1 (Homo sapiens, UniProt Q07912). As to the kind of experiment: Kinase inhibitory activity, ACK1. The experiment is classed as biochemical. The method, then: as §2

pIC50: −log10 of the molar value.

Sequence of ACK1 (Q07912 whole entry): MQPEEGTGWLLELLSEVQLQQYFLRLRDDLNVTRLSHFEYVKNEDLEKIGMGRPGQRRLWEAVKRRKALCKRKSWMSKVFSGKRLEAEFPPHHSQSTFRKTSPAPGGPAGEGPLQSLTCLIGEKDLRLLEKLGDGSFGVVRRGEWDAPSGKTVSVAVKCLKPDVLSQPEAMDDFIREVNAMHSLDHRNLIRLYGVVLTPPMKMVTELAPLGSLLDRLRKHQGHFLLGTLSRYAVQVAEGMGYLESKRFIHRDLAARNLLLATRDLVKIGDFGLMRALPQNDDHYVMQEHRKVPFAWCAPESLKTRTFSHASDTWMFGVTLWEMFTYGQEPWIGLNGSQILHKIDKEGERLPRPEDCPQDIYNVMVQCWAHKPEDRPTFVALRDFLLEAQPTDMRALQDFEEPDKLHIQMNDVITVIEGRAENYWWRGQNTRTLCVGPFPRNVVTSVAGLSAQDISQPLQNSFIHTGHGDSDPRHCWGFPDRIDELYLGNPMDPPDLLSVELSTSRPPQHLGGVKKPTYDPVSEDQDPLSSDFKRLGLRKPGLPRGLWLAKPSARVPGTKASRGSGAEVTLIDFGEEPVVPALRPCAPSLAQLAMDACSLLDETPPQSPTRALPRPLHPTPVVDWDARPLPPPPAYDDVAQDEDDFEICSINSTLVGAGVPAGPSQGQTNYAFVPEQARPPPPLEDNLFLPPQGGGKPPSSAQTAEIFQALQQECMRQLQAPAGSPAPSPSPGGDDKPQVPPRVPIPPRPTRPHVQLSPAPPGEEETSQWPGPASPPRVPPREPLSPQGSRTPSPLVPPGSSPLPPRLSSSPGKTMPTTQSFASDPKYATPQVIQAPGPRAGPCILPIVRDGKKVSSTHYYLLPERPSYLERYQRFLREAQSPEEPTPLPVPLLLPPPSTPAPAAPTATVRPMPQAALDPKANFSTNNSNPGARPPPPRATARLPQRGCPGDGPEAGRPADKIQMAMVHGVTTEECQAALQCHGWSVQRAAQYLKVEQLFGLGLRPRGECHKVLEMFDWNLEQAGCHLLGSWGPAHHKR

By pIC50 is commonly meant the negative decadic logarithm of the IC50, by convention in mol/L. A lower pIC50 goes with a high IC50. Turning to `CCN1CCN(c2ccc(Nc3ncc4c(n3)N(C)C(=O)N(c3cc(NC(=O)c5cccc(C(F)(F)F)c5)ccc3C)C4)cn2)CC1` [Compound 1, N-(3-(7-((6-(4-ethylpiperazin-1-yl)pyridin-3-yl)amino)-1-methyl-2-oxo-1,4-dihydropyrimido[4,5-d]pyrimidin-3-(2H)-yl)-4-methylphenyl)-3-(trifluoromethyl)benzamide], the GI50 is less than 0.2 µM in the experiment with OCI-AML3 (N-RasQ61L), 1.2 to 2 µM in the experiment on U937 (N-Ras WT) and less than 0.2 µM in the experiment with Ba/F3 (N-Ras G12D). Besides, the pIC50 at GCK and at ACK1 was greater than 7.52 in each case.
As to `CCN1CCN(c2cccc(Nc3ncc4c(n3)N(C)C(=O)N(c3cc(NC(=O)c5cccc(C(F)(F)F)c5)ccc3C)C4)c2)CC1` [Compound 2, N-(3-(7-((3-(4-ethylpiperazin-1-yl)phenyl)amino)-1-methyl-2-oxo-1,4-dihydropyrimido[4,5-d]pyrimidin-3-(2H)-yl)-4-methylphenyl)-3-(trifluoromethyl)benzamide], the GI50 in the experiment with OCI-AML3 (N-RasQ61L), in the experiment on U937 (N-Ras WT) and in the experiment with Ba/F3 (N-Ras G12D) was less than 0.2 µM throughout. Further, the pIC50 at GCK is greater than 7.52; against ACK1, 7.00 to 7.35.
As to `Cc1ccc(NC(=O)c2cccc(C(F)(F)F)c2)cc1N1Cc2cnc(Nc3cnn(C)c3)nc2N(C)C1=O` [Compound 3], the GI50 in the experiment with OCI-AML3 (N-RasQ61L) was 0.2 to 0.7 µM; in the experiment with U937 (N-Ras WT), 0.7 to 1.2 µM; in the experiment on Ba/F3 (N-Ras G12D), less than 0.2 µM. Also, the pIC50 on GCK and against ACK1 was greater than 7.52 throughout.
With `Cc1ccc(NC(=O)c2cccc(C(F)(F)F)c2)cc1N1Cc2cnc(Nc3ccccc3)nc2N(C)C1=O` [Compound 4, N-(4-methyl-3-(1-methyl-2-oxo-7-(phenylamino)-1,4-dihydropyrimido[4,5-d]pyrimidin-3(2H)-yl)phenyl)-3-(trifluoromethyl)benzamide], the GI50 in the experiment on OCI-AML3 (N-RasQ61L) was 0.2 to 0.7 µM; with U937 (N-Ras WT), no less than 2 µM; with Ba/F3 (N-Ras G12D) it was 0.2 to 0.7 µM. For the same compound, the pIC50 is 7.00 to 7.35 against GCK and 7.35 to 7.52 against ACK1.
For `Cc1ccc(NC(=O)c2cccc(C(F)(F)F)c2)cc1N1Cc2cnc(NC3CCCCC3)nc2N(C)C1=O` [Compound 5, N-(3-(7-(cyclohexylamino)-1-methyl-2-oxo-1,4-dihydropyrimido[4,5-d]pyrimidin-3(2H)-yl)-4-methylphenyl)-3-(trifluoromethyl)benzamide], the GI50 with OCI-AML3 (N-RasQ61L) is no less than 2 µM; in the experiment on U937 (N-Ras WT), no less than 2 µM; in the experiment on Ba/F3 (N-Ras G12D), 0.2 to 0.7 µM. Moreover, the pIC50 is no more than 6.52 against GCK and 7.00 to 7.35 against ACK1.
In the case of `Cc1ccc(NC(=O)c2cccc(C(F)(F)F)c2)cc1N1Cc2cnc(NCCO)nc2N(C)C1=O` [Compound 6, N-(3-(7-((2-hydroxylethyl)amino)-1-methyl-2-oxo-1,4-dihydropyrimido[4,5-d]pyrimidin-3(2H)-yl)-4-methylphenyl)-3-(trifluoromethyl)benzamide], the GI50 was 0.7 to 1.2 µM with OCI-AML3 (N-RasQ61L), no less than 2 µM in the experiment with U937 (N-Ras WT) and no less than 2 µM in the experiment on Ba/F3 (N-Ras G12D). Besides, the pIC50 was 7.35 to 7.52 against GCK and greater than 7.52 against ACK1.
In the case of `Cc1ccc(NC(=O)c2cccc(C(F)(F)F)c2)cc1N1Cc2cnc(NC3CC3)nc2N(C)C1=O` [Compound 7, N-(3-(7-(cyclopropylamino)-1-methyl-2-oxo-1,4-dihydropyrimido[4,5-d]pyrimidin-3(2H)-yl)-4-methylphenyl)-3-(trifluoromethyl)benzamide], the results for the GI50 with OCI-AML3 (N-RasQ61L), with U937 (N-Ras WT) and with Ba/F3 (N-Ras G12D) were 0.2 to 0.7 µM, no less than 2 µM and 0.2 to 0.7 µM, respectively. Also, the pIC50 against GCK and against ACK1 was 7.35 to 7.52 in each case.
